Results taken from patent US7868204B2, “Inhibitors of histone deacetylase” (MethylGene Inc., priority 2001, dated 2011).
pEC50, pIC50: −log10 of the molar value. Like-named read-outs stand apart in the source and are kept apart here.

What was measured:
[1] = target: T1, cloned recombinant human HDAC-1 (Homo sapiens, UniProt Q13547); assay: Human HDAC-1 enzyme inhibition, Assay 1 ([3H]-acetylated histone substrate, scintillation counting); format: biochemical
T1 construct: made in house; host or cells: Baculovirus insect cell expression system
How it was run: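 Activity read as [3H]-acetic acid liberated from labeled substrate, ethyl acetate-extracted and scintillation-counted. Compounds preincubated 30 min at 4° C. with baculovirus-expressed, purified human HDAC-1. Dose-response curves give IC50 as concentration producing fifty percent of maximal inhibition.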

[2] = tested on: acetylated histone H-4 in T24 human bladder cancer cells; assay: Histone H4 acetylation in whole cells by immunoblots; format: cell-based; details: 16 h
How it was run: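 Acetylated histone H4 was quantified by densitometry of ECL-developed immunoblots, probed with a polyclonal antibody, of […] total histone from T24 cultures exposed 16 h to HDAC inhibitors.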

[3] = tested on: HCT116 cells; assay: MTT assay; format: cell-based; details: Homo sapiens, HCT116 cells, 72 hours
How it was run: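 Read-out: MTT (0.5 mg/ml final, 4 h) after solubilization in 50% DMF/20% SDS, pH 4.7, with OD translated into cell number via the line's growth curve. Compound treatment lasted 72 h at 37 °C in 5% CO2, starting a day after plating.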

[4] = Table 5E, read-out: Human HDAC-1 IC50
[5] = T-24, Table 5E, read-out: H4 Ac (T24) EC50
[6] = Table 5F, read-out: Human HDAC-1 IC50
[7] = T-24, Table 5F, read-out: H4 Ac (T24) EC50
[8] = Table 5b, read-out: Human HDAC-1 IC50
[9] = T-24, Table 5b, read-out: H4Ac (T24) EC50
[10] = Table 5c, read-out: Human HDAC-1 IC50
[11] = T-24, Table 5c, read-out: H4Ac (T24) EC50
[12] = Table 5a, read-out: Human HDAC-1 IC50
[13] = T-24, Table 5a, read-out: H4Ac (T24) EC50

T1 sequence (Q13547 whole entry): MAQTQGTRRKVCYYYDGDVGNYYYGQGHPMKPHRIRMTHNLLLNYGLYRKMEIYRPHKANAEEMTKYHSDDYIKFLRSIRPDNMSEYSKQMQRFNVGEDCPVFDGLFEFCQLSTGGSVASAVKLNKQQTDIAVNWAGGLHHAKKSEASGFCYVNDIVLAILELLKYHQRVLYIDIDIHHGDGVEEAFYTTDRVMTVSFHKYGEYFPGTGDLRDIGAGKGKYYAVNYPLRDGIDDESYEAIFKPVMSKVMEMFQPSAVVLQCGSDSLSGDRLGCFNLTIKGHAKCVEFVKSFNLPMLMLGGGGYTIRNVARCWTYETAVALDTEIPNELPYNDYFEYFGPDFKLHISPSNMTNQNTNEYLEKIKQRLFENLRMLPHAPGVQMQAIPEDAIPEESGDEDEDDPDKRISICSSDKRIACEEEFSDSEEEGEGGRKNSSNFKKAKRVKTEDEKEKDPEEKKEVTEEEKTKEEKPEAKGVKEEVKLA

Compound	pIC50 [1, 6]	pEC50 [2, 7]	pIC50 ([3]; HCT-116, 72 h, Table 5F)	other results
Nc1ccccc1NC(=O)c1ccc(NCc2ccc(F)cc2)nc1 [Cpd 175]	–	–	–	pIC50 [1, 4]: 5.40; pEC50 [2, 5]: 5.52; pIC50 ([3]; HCT-116, 72 h, Table 5E): 6.30
COc1cc(Cl)cc(NCc2ccc(C(=O)Nc3ccccc3N)cc2)n1 [Cpd 387]	5.70	6.00	6.00	–
CN(Cc1ccc(C(=O)Nc2ccccc2N)cc1)c1nc(N)nc(NC2Cc3ccccc3C2)n1 [Cpd 216]	–	–	–	pIC50 [1, 8]: 6.30; pEC50 [2, 9]: 5.70; pIC50 ([3]; HCT-116, 72 h, Table 5b): 6.40
Nc1ccccc1NC(=O)/C=C/c1ccc(NCc2cccc(OCC(F)(F)F)c2)nc1 [Cpd 525, N-(2-Amino-phenyl)-3-{6-[3-(2,2,2-trifluoro-ethoxy)-benzylamino]-pyridin-3-yl}-acrylamide]	–	–	–	pIC50 ([1]; Table 5d, read-out: HDAC-1 IC50): 5.52; pEC50 ([2]; T-24, Table 5d, read-out: H4Ac(T24) EC50): 5.30; pIC50 ([3]; HCT-116, Table 5d): 5.40
Nc1ccccc1NC(=O)c1ccc(Cn2nnc3ccc(Br)cc3c2=O)cc1 [Cpd 347, N-(2-Amino-phenyl)-4-(6-bromo-4-oxo-4H-benzo[d][1,2,3]triazin-3-ylmethyl)-benzamide]	5.70	5.70	6.22	–
Nc1ccccc1NC(=O)c1ccc(Cc2noc(-c3ccncc3)n2)cc1 [Cpd 358, N-(2-Amino-phenyl)-4-(5-pyridin-4-yl-[1,2,4]oxadiazol-3-ylmethyl)-benzamide]	5.52	5.70	6.00	–
CN1C(=O)C2(OCCO2)c2cc(NCc3ccc(C(=O)Nc4ccccc4N)cc3)ccc21 [Cpd 459]	5.40	6.00	6.52	–
COc1ccccc1NCc1ccc(C(=O)Nc2ccccc2N)cc1 [Cpd 429, N-(2-Amino-phenyl)-4-[(2-methoxy-phenylamino)-methyl]-benzamide]	5.40	6.00	6.05	–
Nc1ccccc1NC(=O)c1ccc(CNc2nc3ccccc3[nH]2)cc1 [Cpd 389]	5.52	6.00	6.70	–
COc1ccc(NCc2ccc(C(=O)Nc3ccccc3N)cc2)cc1OCc1cccnc1 [Cpd 405]	5.30	5.30	6.00	–
COc1nc(NCc2ccc(C(=O)Nc3ccccc3N)cc2)nc(NC2Cc3ccccc3C2)n1 [Cpd 214]	–	–	–	pIC50 [1, 8]: 5.52; pEC50 [2, 9]: 6.00; pIC50 ([3]; HCT-116, 72 h, Table 5b): 6.05
Nc1ccccc1NC(=O)c1ccc(CSc2ncc[nH]2)cc1 [Cpd 327, N-(2-Amino-phenyl)-4-(1H-imidazol-2-ylsulfanylmethyl)-benzamide]	5.70	5.52	5.30	–
Cc1cc(C)c(NCc2ccc(C(=O)Nc3ccccc3N)cc2)c(C)c1 [Cpd 410, N-(2-Amino-phenyl)-4-[(2,4,6-trimethyl-phenylamino)-methyl]-benzamide]	6.05	< 5.30	7.00	–
Nc1ccccc1NC(=O)/C=C/c1ccc(NCc2cccc(C(F)(F)F)c2)nc1 [Cpd 101, N-(2-aminophenyl)-3-[6-(3-trifluoromethyl-benzylamino)-pyridin-3-yl]-acrylamide]	–	–	–	pIC50 [1, 10]: 5.52; pEC50 [2, 11]: 5.30; pIC50 ([3]; HCT-116, 72 h, Table 5c): 6.05
Nc1ccccc1NC(=O)c1ccc(CNc2nc(NCc3cccnc3)nc(NC3Cc4ccccc4C3)n2)cc1 [Cpd 30]	–	–	–	pIC50 [1, 12]: 6.00; pEC50 [2, 13]: 6.00; pIC50 ([3]; HCT-116, 72 h, Table 5a): 5.52
Nc1ccccc1NC(=O)c1ccc(CNc2nc(Cl)cc(NCc3cccnc3)n2)cc1 [Cpd 420, N-(2-Amino-phenyl)-4-({4-chloro-6-[(pyridin-3-ylmethyl)-amino]-pyrimidin-2-ylamino]-methyl)-benzamide]	5.52	6.00	6.15	–

Compound	pIC50 [1, 6]	pEC50 [2, 7]	pIC50 ([3]; HCT-116, 72 h, Table 5F)	other results
Nc1ccccc1NC(=O)c1ccc(CSc2nnc(-c3ccccc3)o2)cc1 [Cpd 177]	–	–	–	pIC50 [1, 4]: 6.00; pEC50 [2, 5]: 6.00; pIC50 ([3]; HCT-116, 72 h, Table 5E): 6.40
Cc1c(Cc2ccc(C(=O)Nc3ccccc3N)cc2)sc(NC(=O)Nc2ccccc2)c1C#N [Cpd 361, N-(2-Amino-phenyl)-4-[4-cyano-3-methyl-5-(3-phenyl-ureido)-thiophen-2-ylmethyl]-benzamide]	5.70	6.00	6.30	–
Nc1ccccc1NC(=O)c1ccc(CSc2ccc3ccccc3n2)cc1 [Cpd 131, N-(2-Amino-phenyl)-4-(quinolin-2-ylsulfanylmethyl)-benzamide]	–	–	–	pIC50 [1, 4]: 6.52; pEC50 [2, 5]: 5.70; pIC50 ([3]; HCT-116, 72 h, Table 5E): 6.05
COc1cc(NCc2ccc(-c3ccc(C(=O)Nc4ccccc4N)cc3)s2)cc(OC)c1OC [Cpd 323]	6.00	6.00	6.22	–
Nc1ccccc1NC(=O)c1ccc(CSc2ccccn2)cc1 [Cpd 381]	5.70	5.70	6.00	–
Nc1ccccc1NC(=O)c1ccc(CSc2nccc(C(F)(F)F)n2)cc1 [Cpd 379, N-(2-Amino-phenyl)-4-(4-trifluoromethyl-pyrimidin-2-ylsulfanylmethyl)-benzamide]	5.70	4.82	6.22	–
Cc1onc2c1c(=O)n(Cc1ccc(C(=O)Nc3ccccc3N)cc1)c1cccc(Cl)c21 [Cpd 247]	5.52	5.70	6.22	–
Nc1ccccc1NC(=O)c1ccc(CN2C(=O)c3ccccc3C2=O)cc1 [Cpd 149, N-(2-Amino-phenyl)-4-(1,3-dioxo-1,3-dihydro-isoindol-2-ylmethyl)-benzamide]	–	–	–	pIC50 [1, 4]: 6.00; pEC50 [2, 5]: 5.30; pIC50 ([3]; HCT-116, 72 h, Table 5E): 5.30
Nc1nc(NCc2ccc(C(=O)Nc3ccccc3N)cc2)nc(NC2Cc3ccccc3C2)n1 [Cpd 8, 4-{[4-Amino-6-(2-indanyl-amino)-[1,3,5]-triazin-2-yl-amino]-methyl}-N-(2-amino-phenyl)-benzamide]	–	–	–	pIC50 [1, 12]: 6.40; pEC50 [2, 13]: 6.00; pIC50 ([3]; HCT-116, 72 h, Table 5a): 6.30
Nc1ccccc1NC(=O)/C=C/c1ccc(NC(=O)OCc2cccnc2)cc1 [Cpd 55b]	–	–	–	pIC50 [1, 10]: 5.52; pEC50 [2, 11]: 5.52; pIC50 ([3]; HCT-116, 72 h, Table 5c): 5.10
COc1cccc(SCc2ccc(C(=O)Nc3ccccc3N)cc2)c1 [Cpd 394]	5.40	4.60	5.70	–
COc1cc(CNc2ccc3oc(C(=O)Nc4ccccc4N)cc3c2)cc(OC)c1OC [Cpd 592, 5-(3,4,5-Trimethoxy-benzylamino)-benzofuran-2-carboxylic acid (2-amino-phenyl)-amide]	5.30	> 6.00	6.40	–
Cn1ccnc1SCc1ccc(C(=O)Nc2ccccc2N)cc1 [Cpd 139, N-(2-Amino-phenyl)-4-(1-methyl-1H-imidazol-2-ylsulfanylmethyl]-benzamide]	–	–	–	pIC50 [1, 4]: 5.52; pEC50 [2, 5]: 5.30; pIC50 ([3]; HCT-116, 72 h, Table 5E): 5.52
Nc1ccccc1NC(=O)c1ccc(CN2C(=O)CSc3ccccc32)cc1 [Cpd 363, N-(2-Amino-phenyl)-4-(3-oxo-2,3-dihydro-benzo[1,4]thiazin-4-ylmethyl)-benzamide]	6.00	5.52	6.52	–
Nc1nc(NCc2ccc(C(=O)Nc3ccccc3N)cc2)nc(NC2c3ccccc3-c3ccccc32)n1 [Cpd 14, 4-{[4-Amino-6-(9H-fluoren-9-ylamino)-[1,3,5]triazin-2-ylamino]-methyl)-N-(2-amino-phenyl)-benzamide]	–	–	–	pIC50 [1, 12]: 6.52; pEC50 [2, 13]: 5.30; pIC50 ([3]; HCT-116, 72 h, Table 5a): 6.00
COc1cc(NCc2ccc(-c3ccc(C(=O)Nc4ccccc4N)cc3)cc2)cc(OC)c1OC [Cpd 189, N-(2-Amino-phenyl)-4-[4-{(3,4,5-trimethoxy-phenylamino)-methyl}-phenyl]-benzamide]	5.52	5.30	5.70	–
